Read-outs that look alike come from different tables or passages of the source. Square brackets hold non-standard residues; d marks the D form. Peptide text beside a SMILES is read from it. * marks the point of attachment. Hyp = O=C(O)[C@@H]1C[C@@H](O)CN1; X8 = O=C1CC(*)C(=O)N1
What was measured:
[1] = biological target: T1, bradykinin receptor of the B2 class (rat uterus) (Rattus norvegicus, UniProt P25023); assay: Rat uterus (RU) in vitro, antagonism of bradykinin
T1 construct: concentration effect curves to bradykinin (BK) on rat uterus in vitro; from tissue; host or cells: rat uterus
T1 sequence (P25023 1-396): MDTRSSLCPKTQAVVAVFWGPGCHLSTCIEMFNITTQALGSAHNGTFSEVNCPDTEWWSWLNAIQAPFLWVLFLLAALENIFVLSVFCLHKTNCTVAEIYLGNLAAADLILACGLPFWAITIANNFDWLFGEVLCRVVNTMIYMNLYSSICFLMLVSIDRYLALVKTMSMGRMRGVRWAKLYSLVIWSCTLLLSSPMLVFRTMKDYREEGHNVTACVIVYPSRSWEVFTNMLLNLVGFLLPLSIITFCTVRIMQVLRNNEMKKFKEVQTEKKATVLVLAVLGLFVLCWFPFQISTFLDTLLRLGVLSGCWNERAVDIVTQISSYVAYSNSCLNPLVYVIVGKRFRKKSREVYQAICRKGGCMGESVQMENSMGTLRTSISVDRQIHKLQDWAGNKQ
Experimental: Thus in vitro studies were performed on standard assay systems, namely, guinea-pig ileum (GPI), rat uterus (RU) and rabbit jugular vein (RJV). […] The PA2 can be defined as the negative logarithm of the molar concentration of the antagonist in the presence of which the potency of the agonist is reduced two-fold, i.e. twice the amount of agonist is required to produce a given response in the presence of, than in the absence of, the antagonist. A high potency of antagonism is indicated by a high PA2 value, i.e., a low concentration of antagonist is effective.
The percentage recovery (% Rec) was also determined for compounds with respect to each assay.
With respect to duration of activity, it is noted that after exposure to the highest concentration of antagonist, each tissue was washed extensively and then assessed for recovery from the antagonist effect.
Potency in the rat uterus assay was assessed as described above and PA2 values determined.

[2] = biological target: T2, bradykinin receptor of the B2 class (guinea-pig ileum) (Cavia porcellus, UniProt O70526)
T2 sequence (O70526 1-372): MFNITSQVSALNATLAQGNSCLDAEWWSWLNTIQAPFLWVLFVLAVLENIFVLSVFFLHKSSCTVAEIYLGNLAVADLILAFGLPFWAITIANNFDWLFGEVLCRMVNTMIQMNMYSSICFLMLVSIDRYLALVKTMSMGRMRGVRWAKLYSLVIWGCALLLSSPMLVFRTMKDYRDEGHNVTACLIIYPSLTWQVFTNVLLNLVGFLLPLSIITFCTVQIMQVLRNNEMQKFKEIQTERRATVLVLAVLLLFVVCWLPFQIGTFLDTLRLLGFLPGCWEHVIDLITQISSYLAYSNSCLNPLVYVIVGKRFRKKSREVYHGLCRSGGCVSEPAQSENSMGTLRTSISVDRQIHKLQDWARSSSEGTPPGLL

[3] = Table C, rat uterus, read-out: pA2 DIMER (converted)
[4] = Table E, read-out: RAT UTERUS pA2 (converted)

SMILES	% REC DIMER ([1]; Table C, rat uterus)	Kb [1, 3]	Kb [2]	RAT UTERUS % RECOVERED ([1]; Table E)	Kb [1, 4]	% REC MONOMER ([1]; Table C, rat uterus)	Kb ([1]; Table C, rat uterus, P.A. = Partial Agonist, read-out: pA2 MONOMER (converted))
CC(C)C[C@H](NC(=O)[C@@H](Cc1ccccc1)NC(=O)[C@H](CO)NC(=O)[C@H](Cc1ccccc1)NC(=O)CNC(=O)[C@@H]1C[C@@H](O)CN1C(=O)[C@H](CSC1CC(=O)N(CCCCCCN2C(=O)CC(SC[C@H](NC(=O)[C@H](CCCNC(=N)N)NC(=O)[C@H](N)CCCNC(=N)N)C(=O)N3C[C@H](O)C[C@H]3C(=O)NCC(=O)N[C@@H](Cc3ccccc3)C(=O)N[C@@H](CO)C(=O)N[C@H](Cc3ccccc3)C(=O)N[C@@H](CC(C)C)C(=O)N[C@@H](CCCNC(=N)N)C(=O)O)C2=O)C1=O)NC(=O)[C@H](CCCNC(=N)N)NC(=O)[C@H](N)CCCNC(=N)N)C(=O)N[C@@H](CCCNC(=N)N)C(=O)O (some centres unmarked) [CP-0154] (HELM PEPTIDE1{[dR].R.C.[Hyp].G.F.S.[dF].L.R}|PEPTIDE2{[dR].R.C.[Hyp].G.F.S.[dF].L.R}|CHEM1{[O=C1CC([*:1])C(=O)N1CCCCCCN1C(=O)CC([*:2])C1=O]}$PEPTIDE1,CHEM1,3:R3-1:R1|PEPTIDE2,CHEM1,3:R3-1:R2$$$V2.0)	90%	0.0631 µM	~0.0251 µM	–	–	–	–
CC(C)C[C@H](NC(=O)[C@@H](Cc1ccccc1)NC(=O)[C@H](CSC1CC(=O)N(CCN(CCN2C(=O)CC(SC[C@H](NC(=O)[C@H](Cc3ccccc3)NC(=O)CNC(=O)[C@@H]3C[C@@H](O)CN3C(=O)[C@@H]3CCCN3C(=O)[C@H](CCCNC(=N)N)NC(=O)[C@H](N)CCCNC(=N)N)C(=O)N[C@H](Cc3ccccc3)C(=O)N[C@@H](CC(C)C)C(=O)N[C@@H](CCCNC(=N)N)C(=O)O)C2=O)CCN2C(=O)CC(SC[C@H](NC(=O)[C@H](Cc3ccccc3)NC(=O)CNC(=O)[C@@H]3C[C@@H](O)CN3C(=O)[C@@H]3CCCN3C(=O)[C@H](CCCNC(=N)N)NC(=O)[C@H](N)CCCNC(=N)N)C(=O)N[C@H](Cc3ccccc3)C(=O)N[C@@H](CC(C)C)C(=O)N[C@@H](CCCNC(=N)N)C(=O)O)C2=O)C1=O)NC(=O)[C@H](Cc1ccccc1)NC(=O)CNC(=O)[C@@H]1C[C@@H](O)CN1C(=O)[C@@H]1CCCN1C(=O)[C@H](CCCNC(=N)N)NC(=O)[C@H](N)CCCNC(=N)N)C(=O)N[C@@H](CCCNC(=N)N)C(=O)O (some centres unmarked) [CP-0176] (HELM PEPTIDE1{[dR].R.P.[Hyp].G.F.C.[dF].L.R}|PEPTIDE2{[dR].R.P.[Hyp].G.F.C.[dF].L.R}|PEPTIDE3{[dR].R.P.[Hyp].G.F.C.[dF].L.R}|CHEM1{[O=C1CC([*:1])C(=O)N1CCN(CCN1C(=O)CC([*:2])C1=O)CCN1C(=O)CC([*:3])C1=O]}$PEPTIDE1,CHEM1,7:R3-1:R1|PEPTIDE2,CHEM1,7:R3-1:R2|PEPTIDE3,CHEM1,7:R3-1:R3$$$V2.0)	–	–	~0.1 µM	50%	0.00251 µM	–	–
CC(C)C[C@H](NC(=O)[C@@H](Cc1ccccc1)NC(=O)[C@H](CSSC[C@H](NC(=O)[C@H](Cc1ccccc1)NC(=O)CNC(=O)[C@@H]1C[C@@H](O)CN1C(=O)[C@@H]1CCCN1C(=O)[C@H](CCCNC(=N)N)NC(=O)[C@H](N)CCCNC(=N)N)C(=O)N[C@H](Cc1ccccc1)C(=O)N[C@@H](CC(C)C)C(=O)N[C@@H](CCCNC(=N)N)C(=O)O)NC(=O)[C@H](Cc1ccccc1)NC(=O)CNC(=O)[C@@H]1C[C@@H](O)CN1C(=O)[C@@H]1CCCN1C(=O)[C@H](CCCNC(=N)N)NC(=O)[C@H](N)CCCNC(=N)N)C(=O)N[C@@H](CCCNC(=N)N)C(=O)O [CP-0138] (HELM PEPTIDE1{[dR].R.P.[Hyp].G.F.C.[dF].L.R}|PEPTIDE2{[dR].R.P.[Hyp].G.F.C.[dF].L.R}$PEPTIDE1,PEPTIDE2,7:R3-7:R3$$$V2.0)	–	–	~0.631 µM	100%	0.0398 µM	–	–
CC(C)C[C@H](NC(=O)[C@@H](Cc1ccccc1)NC(=O)[C@H](CSC1CC(=O)N(c2ccc(N3C(=O)CC(SC[C@H](NC(=O)[C@H](Cc4ccccc4)NC(=O)CNC(=O)[C@@H]4C[C@@H](O)CN4C(=O)[C@@H]4CCCN4C(=O)[C@H](CCCNC(=N)N)NC(=O)[C@H](N)CCCNC(=N)N)C(=O)N[C@H](Cc4ccccc4)C(=O)N[C@@H](CC(C)C)C(=O)N[C@@H](CCCNC(=N)N)C(=O)O)C3=O)cc2)C1=O)NC(=O)[C@H](Cc1ccccc1)NC(=O)CNC(=O)[C@@H]1C[C@@H](O)CN1C(=O)[C@@H]1CCCN1C(=O)[C@H](CCCNC(=N)N)NC(=O)[C@H](N)CCCNC(=N)N)C(=O)N[C@@H](CCCNC(=N)N)C(=O)O (some centres unmarked) [CP-0170] (HELM PEPTIDE1{[dR].R.P.[Hyp].G.F.C.[dF].L.R}|PEPTIDE2{[dR].R.P.[Hyp].G.F.C.[dF].L.R}|CHEM1{[O=C1CC([*:1])C(=O)N1c1ccc(N2C(=O)CC([*:2])C2=O)cc1]}$PEPTIDE1,CHEM1,7:R3-1:R1|PEPTIDE2,CHEM1,7:R3-1:R2$$$V2.0)	–	–	~0.501 µM	100%	0.1 µM	–	–
CC(C)C[C@H](NC(=O)[C@@H](Cc1ccccc1)NC(=O)[C@H](CSC1CC(=O)NC1=O)NC(=O)[C@H](Cc1ccccc1)NC(=O)CNC(=O)[C@@H]1C[C@@H](O)CN1C(=O)[C@@H]1CCCN1C(=O)[C@H](CCCNC(=N)N)NC(=O)[C@H](N)CCCNC(=N)N)C(=O)N[C@@H](CCCNC(=N)N)C(=O)O (some centres unmarked) [CP-0139] (H-[dR]RP[Hyp]GFC(X8)[dF]LR-OH)	–	–	~0.0794 µM	–	–	–	–
CC(C)C[C@H](NC(=O)[C@@H](Cc1ccccc1)NC(=O)[C@H](CO)NC(=O)[C@H](CS)NC(=O)CNC(=O)[C@@H]1C[C@@H](O)CN1C(=O)[C@@H]1CCCN1C(=O)[C@H](CCCNC(=N)N)NC(=O)[C@H](N)CCCNC(=N)N)C(=O)N[C@@H](CCCNC(=N)N)C(=O)O [CP-0144] (HELM PEPTIDE1{[dR].R.P.[Hyp].G.C.S.[dF].L.R}$$$$V2.0)	–	–	~0.501 µM	–	–	95%	0.0631 µM
CC(C)C[C@H](NC(=O)[C@@H](Cc1ccccc1)NC(=O)[C@H](CO)NC(=O)[C@H](Cc1ccccc1)NC(=O)CNC(=O)[C@@H]1C[C@@H](O)CN1C(=O)[C@@H]1CCCN1C(=O)[C@H](CCCNC(=N)N)NC(=O)[C@H](N)CSC1CC(=O)N(CCCCCCN2C(=O)CC(SC[C@@H](N)C(=O)N[C@@H](CCCNC(=N)N)C(=O)N3CCC[C@H]3C(=O)N3C[C@H](O)C[C@H]3C(=O)NCC(=O)N[C@@H](Cc3ccccc3)C(=O)N[C@@H](CO)C(=O)N[C@H](Cc3ccccc3)C(=O)N[C@@H](CC(C)C)C(=O)N[C@@H](CCCNC(=N)N)C(=O)O)C2=O)C1=O)C(=O)N[C@@H](CCCNC(=N)N)C(=O)O (some centres unmarked) [CP-0161] (HELM PEPTIDE1{[dC].R.P.[Hyp].G.F.S.[dF].L.R}|PEPTIDE2{[dC].R.P.[Hyp].G.F.S.[dF].L.R}|CHEM1{[O=C1CC([*:1])C(=O)N1CCCCCCN1C(=O)CC([*:2])C1=O]}$PEPTIDE1,CHEM1,1:R3-1:R1|PEPTIDE2,CHEM1,1:R3-1:R2$$$V2.0)	100%	0.316 µM	~0.501 µM	–	–	–	–
CC(C)C[C@H](NC(=O)[C@@H](Cc1ccccc1)NC(=O)[C@H](CO)NC(=O)[C@H](Cc1ccccc1)NC(=O)CNC(=O)[C@@H]1C[C@@H](O)CN1C(=O)[C@@H]1CCCN1C(=O)[C@H](CSC1CC(=O)N(CCCCCCN2C(=O)CC(SC[C@H](NC(=O)[C@H](N)CCCNC(=N)N)C(=O)N3CCC[C@H]3C(=O)N3C[C@H](O)C[C@H]3C(=O)NCC(=O)N[C@@H](Cc3ccccc3)C(=O)N[C@@H](CO)C(=O)N[C@H](Cc3ccccc3)C(=O)N[C@@H](CC(C)C)C(=O)N[C@@H](CCCNC(=N)N)C(=O)O)C2=O)C1=O)NC(=O)[C@H](N)CCCNC(=N)N)C(=O)N[C@@H](CCCNC(=N)N)C(=O)O (some centres unmarked) [CP-0153] (HELM PEPTIDE1{[dR].C.P.[Hyp].G.F.S.[dF].L.R}|PEPTIDE2{[dR].C.P.[Hyp].G.F.S.[dF].L.R}|CHEM1{[O=C1CC([*:1])C(=O)N1CCCCCCN1C(=O)CC([*:2])C1=O]}$PEPTIDE1,CHEM1,2:R3-1:R1|PEPTIDE2,CHEM1,2:R3-1:R2$$$V2.0)	100%	0.02 µM	~0.02 µM	–	–	–	–
CC(C)C[C@H](NC(=O)[C@@H](Cc1ccccc1)NC(=O)[C@H](CO)NC(=O)[C@H](Cc1ccccc1)NC(=O)CNC(=O)[C@@H]1C[C@@H](O)CN1C(=O)[C@@H]1CCCN1C(=O)[C@H](CS)NC(=O)[C@H](N)CCCNC(=N)N)C(=O)N[C@@H](CCCNC(=N)N)C(=O)O [CP-0141] (HELM PEPTIDE1{[dR].C.P.[Hyp].G.F.S.[dF].L.R}$$$$V2.0)	–	–	~1 µM	–	–	–	–

Reference: patent US5416191A, “Bradykinin antagonists” (Cortech, Inc., priority 1993, dated 1995)
